In patent US20230141403A1 (Hoffmann-La Roche Inc., priority 2020, published 2023):
Counter-ions that a name gives are not always drawn.

tested on: Acinetobacter baumannii ATCC17961; test: Antimicrobial susceptibility testing: 90% growth inhibitory concentration (IC90) determination; type: cell-based; conditions: Acinetobacter baumannii, ATCC17961, 16 h, 90% growth inhibitory concentration; Iso-Sensitest broth, optical density at 600 nm over 16h, 35±2° C.; read-out: AB ATCC 17961 IC90
Method: Antimicrobial Susceptibility Testing:
90% Growth Inhibitory Concentration (IC90) Determination
The in vitro antimicrobial activity of the compounds was determined according to the following procedure:
The assay used a 10-points Iso-Sensitest broth medium to measure quantitatively the in vitro activity of the compounds against Acinetobacter baumannii ATCC17961 or ATCC17978.
Stock compounds in DMSO were serially twofold diluted (e.g. range from 50 to 0.097 μM final concentration) in 384 wells microtiter plates and inoculated with 49 μl the bacterial suspension in Iso-Sensitest medium to have a final cell concentration of ˜5×10^(5) CFU/ml in a final volume/well of 50 ul/well. Microtiter plates were incubated at 35±2° C.
Bacterial cell growth was determined with the measurement of optical density at λ=600 nm each 20 minutes over a time course of 16h. Growth inhibition was calculated during the logarithmic growth of the bacterial cells with determination of the concentration inhibiting 50% (IC50) and 90% (IC90) of the growth.
Table 2 provides the 90% growth inhibitory concentrations (IC90) in micromoles per liter of the compounds of present invention obtained against the strain Acinetobacter baumannii ATCC17961.

Row | SMILES | IC90
1 | Cc1cc(Nc2nccn3c(-c4ccc(Oc5ccccn5)c(F)c4F)cnc23)ccc1OCCOCCOCCN [Example 122, N-(4-(2-(2-(2-aminoethoxy)ethoxy)ethoxy)-3-methylphenyl)-3-(2,3-difluoro-4-(pyridin-2-yloxy)phenyl)imidazo[1,2-a]pyrazin-8-amine] | 0.65 µM
2 | CN=S(C)(=O)c1ccc(Nc2nccn3c(-c4ccc(OC)c(F)c4F)cnc23)cc1Cl (centres unmarked) [Example 23, N-[3-chloro-4-(N,S-dimethylsulfonimidoyl)phenyl]-3-(2,3-difluoro-4-methoxy-phenyl)imidazo[1,2-a]pyrazin-8-amine] | 0.11 µM
3 | COc1ccc(-c2cnc3c(Nc4ccc(S(=O)(=O)C[C@H]5CC[C@H](N)CC5)c(Cl)c4)nccn23)c(F)c1F [Example 116, rac-N-(4-((((lr,4r)-4-aminocyclohexyl)methyl)sulfonyl)-3-chlorophenyl)-3-(2,3-difluoro-4-methoxyphenyl)imidazol[1,2-a]pyrazin-8-amine] | 0.22 µM
4 | NCCCCC1CC(=O)N(c2ccc(Nc3nccn4c(-c5ccc(OC(F)F)cc5)cnc34)cc2)C1 (centres unmarked) [Example 63, 4-(4-aminobutyl)-1-(4-((3-(4-(difluoromethoxy)phenyl)imidazo[1,2-a]pyrazin-8-yl)amino)phenyl)pyrrolidin-2-one] | 0.036 µM
5 | CN=S(C)(=O)c1ccc(Nc2nccn3c(-c4ccc(OCC#N)c(F)c4F)cnc23)cc1C (centres unmarked) [Example 25, 2-(4-(8-((4-(N,S-dimethylsulfonimidoyl)-3-methylphenyl)amino)imidazo[1,2-a]pyrazin-3-yl)-2,3-difluorophenoxy) acetonitrile] | 0.048 µM
6 | CCc1cc(Nc2nccn3c(-c4ccc(OC)c(F)c4F)cnc23)ccc1S(=O)(=O)N1CCN(C(=O)[C@@H]2CCN(C(=O)[C@@H]3C[C@@H](O)CN3)C2)CC1 [Example 111, (4-((4-((3-(2,3-difluoro-4-methoxyphenyl)imidazo[1,2-a]pyrazin-s-yl)amino)-2-ethylphenyl)sulfonyl)piperazin-1-yl)((R)-1-((2S,4R)-4-hydroxypyrrolidine-2-carbonyl)pyrrolidin-3-yl)methanone hydrochloride] | 0.87 µM
7 | COc1ccc(-c2cnc3c(Nc4ccc(NC(C)=O)cc4)nccn23)cc1 [Example 15, N-[4-[[3-(4-methoxyphenyl)imidazo[1,2-a]pyrazin-8-yl]amino]phenyl]acetamide] | 0.6 µM

same assay, conditions: Acinetobacter baumannii, ATCC17961, 16 h, read-out: AB ATCC 17961 IC90 (uM)

Row | SMILES | IC90
8 | COc1ccc(-c2cnc3c(Nc4ccc(S(C)(=O)=NCCCN)c(C)c4)nccn23)c(F)c1F (centres unmarked) [Example 67, N-[4-[N-(3-aminopropyl)-S-methyl-sulfonimidoyl]-3-methyl-phenyl]-3-(2,3-difluoro-4-methoxy-phenyl)imidazo[1,2-a]pyrazin-8-amine; formic acid] | 0.12 µM
